A value given as a limit tells only on which side of the number the result lay.

Series [1] can be described thus: Acute toxicity (mortality during 24 hours, i.p.). The conditions noted are these: mouse, in vivo, ip. The protocol:
(§1) The products to be studied were administered by the intraperitoneal route at increasing doses to batches of 10 mice. The mortality provoked by the products studied were noted during the 24 hours following administration of the product.
(§2) From the results obtained, the LD 50, i.e. the dose provoking the death of 50% of the animals studied, is determined for each of the products studied.
(§3) Three products of the prior art are given in this Table by way of comparison: […]

The subject of series [2] is mice. The conditions noted are these: mouse, in vivo, ip. The protocol: as §1
During the same experiments, the convulsivant threshold dose of the product is also noted, i.e. the minimum dose for which a convulsivant activity begins to be shown.
as §3

The test system of series [3] is ptosis induced by reserpine. The series can be described thus: Antagonism of the ptosis induced by reserpine. The class given is in vivo, female mice CDI (Charles River). The conditions noted are these: Mus musculus, ip, reserpine 2 mg/kg i.v. simultaneously, 1 hour. The method, then: This test, described by GOURET (Journal de Pharmacologie (Paris), 1973, 4 (1), 105-128), was made on the female mice CDI (Charles River), weighing 20±1 g. The reserpine causes a ptosis one hour after intravenous administration thereof; certain antidepressants oppose this ptosis. The following protocol was chosen: The substances to be studied were administered by the i.p. route. […] One hour after administration of reserpine, the number of animals not presenting ptosis is noted. This test was carried out on batches of 10 mice, the results are expressed in percentage of animals not presenting ptosis and are the average of at least two experiments. By way of comparison, the results obtained with the three products of the prior art, Minaprine, CM 30070 and CM 30071 have also been indicated.

The next series relates to despair reaction. Nature of the series: Despair reaction (behavioral despair). Format: in vivo, female mouse, CDI (Charles River). The conditions noted are these: one hour before the test; for Behavioral Despair (change of immobility time): immobility between 2nd and 6th minute. The protocol:
This test was carried out in the female mouse, CDI (Charles River), weighing 18 to 23 g, according to the method described by Porsolt (Archives Internationales de Pharmacodynamie, 1977, 229, 327-336). The principle of this test is as follows: when a mouse is placed in a narrow recipient, filled with water, it struggles, then, after 2 to 4 mins., it becomes still and floats on its stomach, its back rounded, its rear paws drawn up under its body and it makes only a few movements necessary for maintaining its head out of the water. This reaction is called the despair reaction. Certain psychotherapeutic agents, particularly the antidepressants, extend the time during which the mouse struggles. The following protocol was chosen: The products to be studied were administered by the i.p. route one hour before the test. For the test, the animals are placed in a narrow recipient (10×10×10 cm), filled with water, up to a height of 6 cm, the temperature of the water being 24° C.±2° C. […] Each substance was studied on a batch of 10 mice. The results are the average of at least two experiments.

For series [4] the following is noted: per os; cited from earlier work.
The conditions of series [5]: in vivo; cited from earlier work.
In series [6] the test system is mice. The series can be described thus: Acute toxicity (mortality during 24 hours, i.p.). The conditions noted are these: mouse, in vivo, ip, 1440 min. The protocol: as §1, §2, §3

As for `NCCNc1ccc(-c2ccccc2)nn1` [SR 95085], the LD50 at 24 h in series [1] is more than 200 mg/kg. Also, the Convulsivant threshold dose in the series with mice [2] was more than 200 mg/kg.

As to `NCCNc1nnccc1-c1ccccc1` [SR 95002], the LD50 at 24 h in series [1] was approximately 150 mg/kg. In the series on mice [2], this compound displayed a Convulsivant threshold dose of 100 mg/kg.

As to `CNCCNc1nnc(-c2ccccc2)cc1C` [SR 95029, 2-(2-Methylamino Ethylamino)4-Methyl 6-Phenyl Pyridazine], the LD50 at 24 h in series [1] (mice, 24 hours) was more than 200 mg/kg. In the series with mice [2], the Convulsivant threshold dose amounted to 200 mg/kg.

What is called ED50 is the midpoint of the dose-response relation. With `Cc1cc(-c2ccccc2)nnc1NCCCN` [CM 30486, 3-(3-aminopropylamino)4-methyl 6-phenyl pyridazine], the LD50 at 24 h in series [1] (mice, 24 hours) was more than 200 mg/kg. Besides, in the series on mice [2], the Convulsivant threshold dose was more than 200 mg/kg. Besides, the ED50 in series [3] is approximately 10 mg/kg. Besides, the “Behavioral Despair (change of immobility time)” value in the series with despair reaction (10 mg/kg i.p.) is recorded as -20%.

On to `Cc1cc(-c2ccccc2)nnc1NCCN1CCOCC1` [Minaprine], for which, in the series on mice [2], the Convulsivant threshold dose came to 35 mg/kg. In addition, the ED50 in series [3] came out at 5 mg/kg. Besides, the “Behavioral Despair (change of immobility time)” value in the series with despair reaction (10 mg/kg i.p.) was -35%. For the same compound, the “dose at which the product proves convulsivant” value in series [4] is listed as “higher than 100 mg/kg”. Besides, the “type of psychotherapeutic action” value in series [5] is “"disinhibitory" activity”.

With `NCCNc1cc(-c2ccccc2)cnn1` [SR 95086], in series [1], the LD50 at 24 h was more than 200 mg/kg. The same compound registered a Convulsivant threshold dose with mice [2] of more than 200 mg/kg.

Compound `Cc1cc(-c2ccc(O)cc2)nnc1NCCN` [SR 95073, 3-(2-Amino Ethylamino)4-Methyl 6-(4-Hydroxy Phenyl)Pyridazine] showed an LD50 at 24 h in series [1] (mice, 24 hours) of more than 200 mg/kg. The Convulsivant threshold dose in the series on mice [2] was more than 200 mg/kg.

In series [1] (mice, 24 hours), `Cc1cc(-c2ccccc2)nnc1NCCCCN` [CM 30487, 3-(4-aminobutylamino)4-methyl 6-phenyl pyridazine] yielded an LD50 at 24 h of more than 200 mg/kg. The Convulsivant threshold dose with mice [2] is given as more than 200 mg/kg.

Take `Cc1cc(-c2ccccc2)nnc1NCCN(C)C` [CM 30071, reference compound]: the LD50 in the series with mice [6] was 118 (101-139) mg/kg. For the same compound, the Convulsivant threshold dose with mice [2] came to 100 mg/kg. For the same compound, the ED50 in series [3] was approximately 50 mg/kg. In addition, in the series on despair reaction (10 mg/kg i.p.), the “Behavioral Despair, result in words” value was “inactive”.

On to `Cc1cc(-c2ccccc2)nnc1NCCN` [CM 30099, 3-(2-Amino Ethylamino)4-Methyl 6-Phenyl Pyridazine], for which the LD50 at 24 h in series [1] (mice, 24 hours) is more than 200 mg/kg. Also, in the series on mice [2], the Convulsivant threshold dose was 200 mg/kg. The compound also had an ED50 in series [3] of 16 mg/kg. The “Behavioral Despair (change of immobility time)” value in the series on despair reaction (10 mg/kg i.p.) is recorded as -50%.

In turn, `CCN(CC)CCNc1nnc(-c2ccccc2)cc1C` [CM 30070, reference compound] had an LD50 at 24 h in series [1] of 80 mg/kg. In the series on mice [2], this compound displayed a Convulsivant threshold dose of 60 mg/kg. In series [3], this compound returned an ED50 of approximately 50 mg/kg. Moreover, the “Behavioral Despair, result in words” value with despair reaction (25 mg/kg i.p.) is “inactive”.

These data come from patent US4508720A, “Amino derivatives of pyridazine, and compositions thereof for the central nervous system” (Sanofi, priority 1981, dated 1985).
